Experimental findings from patent US20240124454A1, “TRICYCLIC COMPOUND AND USE THEREOF” (NANJING ZAIMING PHARMACEUTICAL CO., LTD., priority 2020, published 2024) are described below.

A value given as a limit tells only on which side of the number the result lay.

Sequence of hERG potassium channel (Q12809 whole entry): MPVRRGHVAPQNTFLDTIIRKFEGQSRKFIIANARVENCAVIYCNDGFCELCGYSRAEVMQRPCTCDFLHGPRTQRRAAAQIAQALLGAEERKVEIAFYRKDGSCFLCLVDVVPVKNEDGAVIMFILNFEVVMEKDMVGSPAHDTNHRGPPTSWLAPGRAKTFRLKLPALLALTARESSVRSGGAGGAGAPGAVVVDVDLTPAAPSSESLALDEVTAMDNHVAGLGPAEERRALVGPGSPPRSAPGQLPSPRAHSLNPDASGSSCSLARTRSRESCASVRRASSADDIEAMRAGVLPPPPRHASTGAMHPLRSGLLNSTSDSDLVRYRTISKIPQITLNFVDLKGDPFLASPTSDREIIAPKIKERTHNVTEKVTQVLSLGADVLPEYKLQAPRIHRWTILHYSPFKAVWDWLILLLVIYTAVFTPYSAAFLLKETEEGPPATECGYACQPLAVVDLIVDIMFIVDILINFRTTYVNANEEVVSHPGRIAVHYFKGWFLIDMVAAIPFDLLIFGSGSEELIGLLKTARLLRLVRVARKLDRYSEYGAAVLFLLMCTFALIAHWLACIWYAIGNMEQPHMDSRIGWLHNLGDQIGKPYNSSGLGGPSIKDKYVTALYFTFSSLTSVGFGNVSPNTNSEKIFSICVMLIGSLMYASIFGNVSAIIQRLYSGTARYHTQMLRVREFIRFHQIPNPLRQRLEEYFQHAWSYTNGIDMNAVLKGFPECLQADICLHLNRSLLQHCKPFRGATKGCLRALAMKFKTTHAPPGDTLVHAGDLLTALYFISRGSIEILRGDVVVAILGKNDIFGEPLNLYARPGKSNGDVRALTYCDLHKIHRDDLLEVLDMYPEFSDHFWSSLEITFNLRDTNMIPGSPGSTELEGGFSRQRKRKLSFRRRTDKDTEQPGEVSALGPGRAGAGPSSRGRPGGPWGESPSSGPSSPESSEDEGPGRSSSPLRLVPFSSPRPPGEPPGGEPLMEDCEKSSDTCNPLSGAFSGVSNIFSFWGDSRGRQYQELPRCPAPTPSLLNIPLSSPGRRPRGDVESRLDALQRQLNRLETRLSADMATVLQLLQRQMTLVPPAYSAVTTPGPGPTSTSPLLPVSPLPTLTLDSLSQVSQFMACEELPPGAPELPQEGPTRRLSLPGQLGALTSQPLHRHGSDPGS

In the series the target is hERG potassium channel (Homo sapiens (Human), UniProt Q12809). In words: hERG inhibitory activity, manual patch-clamp in HEK293 cells. Format: cell-based. The conditions noted are these: HEK293 stably expressing hERG. The protocol:
Test Example 8. Assay for hERG Inhibitory Activity of Compound of Present Application
The inhibition of hERG activity by the compounds of the present application was determined using the following method.
I. Experimental materials and instruments • 1. Dialyzed fetal bovine serum Shanghai Bohan Biotechnology Co., Ltd (BS-0005-500) • 2. DMEM culture medium Thermo Fisher Scientific (China) Co., Ltd. (10569) • 3. HEPES Thermo Fisher Scientific (China) Co., Ltd. (15630080) • 4. Trypsin Thermo Fisher Scientific (China) Co., Ltd. (2192509) • 5. Penicillin-streptomycin solution Thermo Fisher Scientific (China) Co., Ltd. (15140-122) • 6. MEM non-essential amino acid solution Thermo Fisher Scientific (China) Co., Ltd. (11140) • 7. Geneticin (G418) Thermo Fisher Scientific (China) Co., Ltd. (11811031) • 8. Blasticidin Thermo Fisher Scientific (China) Co., Ltd. (R21001) • 9. PolylysineThermo Fisher Scientific (China) Co., Ltd. (P4832) • 10. Dofetilide Beijing Express Technology Co., Ltd. (D525700) • 11. Doxycycline Sigma-Aldrich (Shanghai) Trading Co., Ltd. (D9891) • 12. Carbon dioxide incubator Thermo Fisher Scientific (China) Co., Ltd. (371) • 13. Puller Sutter Company, U.S. (P-97) • 14. Micromanipulator Siskiyou Company, U.S. (MC1000e) • 15. Micromanipulator Sutter Company, U.S. (ROE-200; MP285) • 16. Amplifier HEKA Company, Germany (EPC10) • 17. Microscope Olympus (China) Co., Ltd. (IX51/71/73) • 18. Perfusion system ALA Company, U.S. (VM8 gravity administration system)
II. Culture of cell lines and cells
HEK293 cells (Cat. No: K1236) stably expressing hERG ion channel were purchased from Invitrogen. The cells were cultured in a culture medium containing 85% DMEM, 10% dialyzed fetal bovine serum, 0.1 mM non-essential amino acid solution, 100 U/mL penicillin-streptomycin solution, 25 mM HEPES, 5 μg/mL blasticidin, and 400 μg/mL geneticin. When the cell density increased to 40-80% of the bottom area of the culture dish, the cells were digested with trypsin and subcultured thrice every week. Before the experiment, the cells were cultured at a density of 5×10^5 in 6-cm culture dishes, induced for 48 h with 1 μg/mL doxycycline, and then digested and inoculated on a slide for the subsequent manual patch-clamp experiment.
III. Preparation of solutions
1) Extracellular fluid: 132 mM sodium chloride, 4 mM potassium chloride, 3 mM calcium chloride, 0.5 mM magnesium chloride, 11.1 mM glucose, and 10 mM HEPES (adjusted to pH 7.35 with sodium hydroxide).
2) Intracellular fluid: 140 mM potassium chloride, 2 mM magnesium chloride, 10 mM EGTA, 5 mM ATP-magnesium salt, and 10 mM HEPES (adjusted to pH 7.35 with potassium hydroxide).
Note: the osmotic pressure of the solutions was controlled at 280-300 mOsmol/kg. The solutions were filtered and stored at 4° C. before use. The ATP-magnesium salt was prepared into a 100 mM stock solution, subpackaged, and stored in a −20° C. refrigerator. On the day of the experiment, a certain amount of the stock solution was added into the intracellular fluid right before use.
1) The slides carrying HEK293 cells in the culture dish were placed in the perfusion chamber of the micromanipulation stage.
2) Appropriate cells were placed in the center of the field of view under an Olympus IX51, IX71, or IX73 inverted microscope. The tip of the glass electrode was found using a 10× objective lens and placed in the center of the field of view. The electrode was then moved down using a micromanipulator while the electrode was slowly brought into proximity to the cell using the coarse adjustment.
3) When the electrode was in close proximity to the cell, the lens was switched to a 40× objective lens for observation. The micromanipulator was used for fine adjustment to make the electrode approach the surface of the cell gradually.
4) Negative pressure was applied to form a seal with a resistance higher than 1 GΩ between the electrode tip and the cell membrane. […]
A general note: Block of hERG is tested as a sign of cardiac risk.
For `Cc1ncccc1-n1c(=O)c2ncn(C)c2c2ccc(C(F)(F)F)nc21` (atropisomer, axis not shown) [Compound 20, 1-methyl-5-(2-methylpyridin-3-yl)-7-(trifluoromethyl)-1,5-dihydro-4H-imidazo[4,5-c][1,8]naphthyridin-4-one], the IC50 (as a rule, the concentration that gives 50% inhibition) is greater than 0.03 µM.
In turn, `Cn1cnc2c(=O)n(-c3cccc(F)c3Cl)c3nc(C(F)(F)F)ccc3c21` (atropisomer, axis not shown) [Compound 25, 5-(2-chloro-3-fluorophenyl)-1-methyl-7-(trifluoromethyl)-1,5-dihydro-4H-imidazo[4,5-c][1,8]naphthyridin-4-one] returned an IC50 greater than 0.03 µM.
In turn, `Cn1cnc2c(=O)n(-c3cccc(F)c3Cl)c3nc(C(F)(F)F)ccc3c21` (single isomer, unassigned) [Compound 25-P2, 5-(2-chloro-3-fluorophenyl)-1-methyl-7-(trifluoromethyl)-1,5-dihydro-4H-imidazo[4,5-c][1,8]naphthyridin-4-one] showed a concentration for half-maximal inhibition (IC50) greater than 0.03 µM.
The compound `Cn1cnc2c(=O)n(-c3cccnc3C(F)(F)F)c3nc(C(F)(F)F)ccc3c21` (single isomer, unassigned) [Compound 41-P2, 1-methyl-7-(trifluoromethyl)-5-(2-(trifluoromethyl)pyridin-3-yl)-1,5-dihydro-4H-imidazo[4,5-c][1,8]naphthyridin-4-one] gave a concentration for half-maximal inhibition (IC50) greater than 0.03 µM.
In the case of `Cn1cnc2c(=O)n(-c3cccnc3C3CC3)c3nc(C(F)(F)F)ccc3c21` (single isomer, unassigned) [Compound 42-P2, 5-(2-cyclopropylpyridin-3-yl)-1-methyl-7-(trifluoromethyl)-1,5-dihydro-4H-imidazo[4,5-c][1,8]naphthyridin-4-one] it was greater than 0.03 µM; in that of `Cn1cnc2c(=O)n(-c3cccnc3C3CC3)c3cc(C(F)(F)F)ccc3c21` (single isomer, unassigned) [Compound 48-P2, 5-(2-cyclopropylpyridin-3-yl)-1-methyl-7-(trifluoromethyl)-1,5-dihydro-4H-imidazo[4,5-c]quinolin-4-one], greater than 0.03 µM.
In the case of `Cn1cnc2c(=O)n(-c3cccnc3C3CC3)c3cc(Cl)ccc3c21` (single isomer, unassigned) [Compound 49-P2, 7-chloro-5-(2-cyclopropylpyridin-3-yl)-1-methyl-1,5-dihydro-4H-imidazo[4,5-c]quinolin-4-one] it was greater than 0.03 µM; in that of `O=c1c2ncoc2c2ccc(C(F)(F)F)nc2n1-c1cccnc1C1CC1` (single isomer, unassigned) [Compound 81-P2, 5-(2-cyclopropylpyridin-3-yl)-7-(trifluoromethyl)oxazolo[4,5-c][1,8]naphthyridin-4(5H)-one], greater than 0.03 µM; in that of `Cn1cnc2c(=O)n(-c3cccc(F)c3Cl)c3cc(Cl)ccc3c21` [Compound 39, 7-chloro-5-(2-chloro-3-fluorophenyl)-1-methyl-1,5-dihydro-4H-imidazo[4,5-c]quinolin-4-one], greater than 0.03 µM.
Regarding `Cc1ncccc1-n1c(=O)c2ncoc2c2ccc(C(F)(F)F)nc21` [Compound 40, 5-(2-methylpyridin-3-yl)-7-(trifluoromethyl)oxazolo[4,5-c][1,8]naphthyridin-4(5H)-one], the IC50 is greater than 0.03 µM.
The compound `Cc1ncccc1-n1c(=O)c2ncn(C)c2c2ccc(C(F)(F)F)cc21` [Compound 45, 1-methyl-5-(2-methylpyridin-3-yl)-7-(trifluoromethyl)-1,5-dihydro-4H-imidazo[4,5-c]quinolin-4-one] came in with a 50% inhibitory concentration (IC50) greater than 0.03 µM.
